This data set concerns CCRIS mutagenicity, Ames/micronucleus/aberration tests. Briefly: CCRIS mutagenicity studies. As to conditions: Test System: AMES SALMONELLA TYPHIMURIUM

Among the data in PubChem BioAssay AID1259407 (Chemical Carcinogenesis Research Information System (CCRIS), 2018) are mutagenic call values, retold here.

Activity calls are given as the source filed them. How the calls were made is not given here.

For `N#CCCC#N`, the mutagenic call runs as follows: (Strain/Indicator: TA97, Metabolic Activation: HAMSTER, LIVER, S-9, AROCLOR 1254 (10 OR 30%), Method: PREINCUBATION) “inactive; negative”; (Strain/Indicator: TA97, Metabolic Activation: NONE, Method: PREINCUBATION) “inactive; negative”; (Strain/Indicator: TA97, Metabolic Activation: RAT, LIVER, S-9, AROCLOR 1254 (10 OR 30%), Method: PREINCUBATION) “inactive; negative”; (Strain/Indicator: TA98, Metabolic Activation: HAMSTER, LIVER, S-9, AROCLOR 1254 (10 OR 30%), Method: PREINCUBATION) “inactive; negative”; (Strain/Indicator: TA98, Metabolic Activation: NONE, Method: PREINCUBATION) “inactive; negative”; (Strain/Indicator: TA98, Metabolic Activation: RAT, LIVER, S-9, AROCLOR 1254 (10 OR 30%), Method: PREINCUBATION) “inactive; negative”. The mutagenic call reads like this: (Strain/Indicator: TA100, Metabolic Activation: HAMSTER, LIVER, S-9, AROCLOR 1254 (10 OR 30%), Method: PREINCUBATION) “inactive; negative”; (Strain/Indicator: TA100, Metabolic Activation: NONE, Method: PREINCUBATION) “inactive; negative”; (Strain/Indicator: TA100, Metabolic Activation: RAT, LIVER, S-9, AROCLOR 1254 (10 OR 30%), Method: PREINCUBATION) “inactive; negative”; (Strain/Indicator: TA1535, Metabolic Activation: HAMSTER, LIVER, S-9, AROCLOR 1254 (10 OR 30%), Method: PREINCUBATION) “inactive; negative”; (Strain/Indicator: TA1535, Metabolic Activation: NONE, Method: PREINCUBATION) “inactive; negative”; (Strain/Indicator: TA1535, Metabolic Activation: RAT, LIVER, S-9, AROCLOR 1254 (10 OR 30%), Method: PREINCUBATION) “inactive; negative”.
For the compound `Cc1nn(C)c(N)c1C(=O)c1ccccc1F`, the mutagenic call is “active; positive” (Strain/Indicator: TA98, Metabolic Activation: RAT, LIVER, S-9, AROCLOR 1254, Method: PREINCUBATION); “active; positive” (Strain/Indicator: TA98, Metabolic Activation: RAT, LIVER, S-9, AROCLOR 1254, Method: STANDARD PLATE); “active; positive” (Strain/Indicator: TA98, Metabolic Activation: RAT, LIVER, S-9, PHENOBARBITAL, Method: PREINCUBATION); “active; positive” (Strain/Indicator: TA100, Metabolic Activation: RAT, LIVER, S-9, AROCLOR 1254, Method: PREINCUBATION); “active; positive” (Strain/Indicator: TA100, Metabolic Activation: RAT, LIVER, S-9, AROCLOR 1254, Method: STANDARD PLATE); “active; positive” (Strain/Indicator: TA100, Metabolic Activation: RAT, LIVER, S-9, PHENOBARBITAL, Method: PREINCUBATION).
